Results: US20110171291A1, “PATHOLOGICALLY-ACTIVATED THERAPEUTICS” (Sanford-Burnham Medical Research Institute, priority 2010, published 2011)

Legend:
[1] = tested on: AMPA/KA-type glutamate receptor; test: Primary screen of the LOPAC 1280 library: Fluo-4 NW calcium entry induced by kainate in cultured cerebrocortical neurons; assay type: cell-based; settings: three separate screens; 200 μM KA
Experimental: FIGS. 19a and 19b show the fluorescence response indicating calcium ion entry induced by Kainate (KA) at AMPA-type glutamate receptor channels in cultured neurons. Fluorescent dye loading is accomplished by adding Fluo-4 NW to cells at 37° C. for 20 min and at RT (room temperature) for 10 min. The cells are incubated with compounds to be screened (generally 1 to 10 μM in 1% DMSO) for 2 min, followed by incubation with 200 μM kainate (KA) for 10 min (20 μM KA is used for the second, lower concentration of agonist—not shown here). […] The Z-factor, a statistical indication of the robustness of a high-throughput screen, fluctuated between 0.54-0.73 through the time course. This range of Z-factors is more than adequate for HTS (a value of Z≧0.5 generally indicates a robust screen).
The disclosed methods screen for uncompetitive drugs against a number of targets. […] Primary neurons or cell lines are used that contain (or are genetically engineered to contain) a target molecule on their surface, such as the AMPA/kainate-type glutamate receptors with unedited GluR2 subunits or other molecules that result in intracellular Ca^2+ signaling, such as G-protein-coupled receptors. […] Screening (by quantifying the Ca^2+ response) with two concentrations of agonist for the target, a low concentration and a higher concentration, against chemicals in the library administered at a single micromolar concentration. For these AMPA receptors, kainate can be used as the agonist for HTS because the responses are less desensitizing than those to AMPA. The agonist results in an increase in intracellular Ca^2+ that can be monitored by HTS using the Ca^2+ indicator dye fluo-4 NW.
Using cerebrocortical neurons and calcium-sensitive dyes, as described above, conditions have been optimized for screening for AMPA/Kainate-receptor antagonists. For this purpose, the following experimental parameters were varied: cell density, composition of culture medium, length of cultures, type of calcium-sensitive dye, and condition (temperature and length) of dye loading. The following protocol was established. […]

rhodanese = test: PDI chaperone activity: aggregation of guanidinium-denatured rhodanese; assay type: biochemical; settings: 1 μM recombinant PDI
Experimental: To determine whether S-nitrosylation affects PDI function, PDI chaperone and isomerase activities were monitored. Chaperone activity was assessed in a standard assay by measuring the degree of aggregation of rhodanese induced by guanidinium, as previously described9. Rhodanese aggregation occurred in a time-dependent manner, and incubation with recombinant wild-type PDI, but not dominantnegative PDI (produced by the N-terminal and C-terminal mutant) (Ko, H. S., et al. J. Biol. Chem., 277, 35386-35392, (2002)), suppressed this aggregation by about 80%. […] Thus, S-nitrosylation inhibited the functional activities of PDI. […] Therefore, the inhibitory effect of PDI on the aggregation of synphilin-1 was investigated, as observed in Lewy body inclusions in the brains of PD patients. First, it was tested if PDI could prevent the ubiquitinated, Lewy-body-like inclusions that are formed in the cytosol after synphilin-1 overexpression in cultured SH-SY5Y cells (See FIG. 2c). […]
Chaperone activity of PDI was measured by analyzing the renaturation (refolding) of denatured rhodanese in the presence of 1 μM PDI or its mutant form (Vuori, K., et al. J. Biol. Chem, 267, 7211-7214, (1992); Horibe, T. et al. J. Biol. Chem. 279, 4604-4611 (2004); Martin, J. et al. Nature 352, 36-42 (1991)). […] The aggregation of denatured rhodanese was monitored by the increase in absorbance at 320 nm. […]

NMDA receptor = test: Excitatory postsynaptic currents (EPSCs) recorded from the hippocampal autapse preparation; assay type: cell-based; settings: 1 μM
Text: Note that the initial component of the EPSC is mediated by AMPA-sensitive glutamate receptors, whereas a delayed component is mediated by NMDA receptors. […] See Chen, H.-S. V. et al. Neuroscience 86, 1121-1132 (1998).

[2] = tested on: brain damage after the ischaemic event; settings: given up to 2 hours after the ischaemic event; cited from earlier work

Compound: N#Cc1cc2[nH]c(=O)c(=O)[nH]c2cc1[N+](=O)[O-] [CNQX]
- scored as hit (significantly blocked calcium entry induced by KA) [1]: positively scored

Compound: wild-type PDI: recombinant wild-type protein-disulphide isomerase
- suppression of rhodanese aggregation (rhodanese): about 80%

Compound: C[C@]12N[C@H](Cc3ccccc31)c1ccccc12 [MK-801, dizocilpine]
- block of the NMDA receptor-mediated component of the EPSC (NMDA receptor): complete blockade

Compound: O=[N+]([O-])c1cc2nc(O)c(O)nc2cc1[N+](=O)[O-] [DNQX]
- scored as hit (significantly blocked calcium entry induced by KA) [1]: scored positively in all three screens

Compound: NS(=O)(=O)c1cccc2c1c([N+](=O)[O-])cc1nc(O)c(O)nc12 [NBQX]
- scored as hit (significantly blocked calcium entry induced by KA) [1]: scored positively in all three screens

Compound: CC12CC3CC(C)(C1)CC(N)(C3)C2 [memantine]
- block of the NMDA receptor-mediated component of the EPSC (NMDA receptor): 10-15%
- reduction of brain damage [2]: approximately 50%
